# Test results published in US8492559B2, “Substituted indole compounds” (Gruenenthal GmbH, priority 2009, dated 2013).
# Molecular target: T1, B1R receptor of the rat (rB1R) (Rattus norvegicus, UniProt P97583)
# T1 construct: expressed in transfected cells; host or cells: CHO K1 cells
# T1 sequence (P97583 1-337): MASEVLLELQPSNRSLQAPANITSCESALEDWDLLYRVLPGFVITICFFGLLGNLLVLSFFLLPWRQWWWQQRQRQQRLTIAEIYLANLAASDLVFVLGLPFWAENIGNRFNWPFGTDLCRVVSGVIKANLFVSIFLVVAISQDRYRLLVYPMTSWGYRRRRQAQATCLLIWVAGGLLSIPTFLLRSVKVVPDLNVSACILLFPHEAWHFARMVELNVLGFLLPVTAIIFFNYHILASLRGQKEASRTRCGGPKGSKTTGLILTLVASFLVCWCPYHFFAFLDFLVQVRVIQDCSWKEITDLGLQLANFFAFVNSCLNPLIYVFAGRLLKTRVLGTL
# Experiment: Functional investigation on the bradykinin 1 receptor (B1R), FLIPR Ca2+ assay, rB1R cells
# Assay type: cell-based
# Conditions: 10 μM test substance; CHO K1 cells with rat B1R; agonist Des-Arg9 bradykinin; % of maximum achievable inhibition; 10 µM
# Summary of the method: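 Ca2+ influx is measured as peak Fluo-4 fluorescence in a FLIPR protocol with two substance additions, following Lys-Des-[MUT] bradykinin (0.5 nM) or Des-[MUT] bradykinin (100 nM) challenge. Varying antagonist concentrations give % inhibition relative to maximum achievable and an IC50. Determinations in duplicate or triplicate, repeated independently (N>=2).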
row,"B1R antagonism, rat [10 μM] % inhibition",SMILES
1,76%,"O=C(CCn1ccc2cccc(N3Cc4cccc(Cl)c4C3=O)c21)N1CCC2(CC1)CCN(c1ccncc1)CC2 [Compound G-10, 7-Chloro-2-(1-(3-oxo-3-(9-(pyridin-4-yl)-3,9-diazaspiro[5.5]undecan-3-yl)propyl)-1H-indol-7-yl)isoindolin-1-one]"
2,95%,"O=C(CCn1ccc2ccc(N3Cc4cccc(Cl)c4C3=O)cc21)N1CCC2(CC1)CCN(c1ccncc1)CC2 [G_CC-67, 7-Chloro-2-[1-[3-oxo-3-(3-pyridin-4-yl-3,9-diazaspiro[5.5]undecan-9-yl)-propyl]-1H-indol-6-yl]-2,3-dihydro-isoindol-1-one]"
3,78%,"COc1cc(C)c(S(=O)(=O)Nc2ccc3ccn(CC(=O)N4CCC(CCN5CCCC5)CC4)c3c2)c(C)c1 [Compound G-01, 4-Methoxy-2,6-dimethyl-N-[1-[2-oxo-2-[4-(2-pyrrolidin-1-yl-ethyl)-piperidin-1-yl]-ethyl]-1H-indol-6-yl]-benzenesulfonic acid amide]"

# Same assay, conditions: CHO-K1, 10 μM test substance; CHO K1 cells with rat B1R; agonist Des-Arg9 bradykinin; % of maximum achievable inhibition; read-out: B1R antagonism, rat [10 μM] % inhibition
row,SMILES,inhibition at 10 µM
1,"O=C(Cn1ccc2cccc(N3Cc4cccc(Cl)c4C3=O)c21)N1CCC2(CC1)CCN(c1ccncc1)CC2 [Compound G-11, 7-Chloro-2-(1-(2-oxo-2-(9-(pyridin-4-yl)-3,9-diazaspiro[5.5]undecan-3-yl)ethyl)-1H-indol-7-yl)isoindolin-1-one]",-21%
2,"O=C(Cn1ccc2ccc(N3Cc4cccc(Cl)c4C3=O)cc21)N1CCC2(CC1)CC(c1ccncc1)=NO2 [Compound G-15, 7-Chloro-2-(1-(2-oxo-2-(3-(pyridin-4-yl)-1-oxa-2,8-diazaspiro[4.5]dec-2-en-8-yl)ethyl)-1H-indol-6-yl)isoindolin-1-one]",54%
3,"COc1cc(C)c(S(=O)(=O)Nc2cccc3ccn(CC(=O)N4CCC(CCN5CCCC5)CC4)c23)c(C)c1 [Compound G-02, 4-Methoxy-2,6-dimethyl-N-[1-[2-oxo-2-[4-(2-pyrrolidin-1-yl-ethyl)-piperidin-1-yl]-ethyl]-1H-indol-7-yl]-benzenesulfonic acid amide]",100%
4,"O=C(Cn1ccc2ccc(N3Cc4cccc(Cl)c4C3=O)cc21)N1CCC2(CCC(N3CCC3)CC2)CC1 [Compound G-21, 2-(1-(2-(9-(Azetidin-1-yl)-3-azaspiro[5.5]undecan-3-yl)-2-oxoethyl)-1H-indol-6-yl)-7-chloroisoindolin-1-one]",43%
5,"O=C(Cn1ccc2ccc(N3CCn4ccc(Cl)c4C3=O)cc21)N1CCC2(CC1)CCN(c1ccncc1)CC2 [Compound G-33, 8-Chloro-2-[1-[2-oxo-2-(9-pyridin-4-yl-3,9-diazaspiro[5.5]undecan-3-yl)-ethyl]-1H-indol-6-yl]-3,4-dihydro-2H-pyrrolo[1,2-a]pyrazin-1-one]",46%
6,"O=C(Cn1ccc2ccc(N3Cc4cccc(Cl)c4C3=O)cc21)N1CCC2(CCN(c3ccncc3)CC2)C1 [Compound G-12, 7-Chloro-2-(1-(2-oxo-2-(8-(pyridin-4-yl)-2,8-diazaspiro[4.5]decan-2-yl)ethyl)-1H-indol-6-yl)isoindolin-1-one]",92%
7,"Cc1cc(S(=O)(=O)Nc2ccc3ccn(CC(=O)N4CCN(CC5CCN(C)CC5)CC4)c3c2)c(C)cc1Cl [G_CC-8, 4-Chloro-2,5-dimethyl-N-[1-[2-[4-[(1-methyl-piperidin-4-yl)-methyl]-piperazin-1-yl]-2-oxo-ethyl]-1H-indol-6-yl]-benzenesulfonic acid amide]",100%
8,"COc1cc(C)c(S(=O)(=O)Nc2cccc3ccn(CC(=O)N4CCC5(CCN(c6ccncc6)C5)C4)c23)c(C)c1 (stereo not shown) [Compound G-17, 4-Methoxy-2,6-dimethyl-N-(1-(2-oxo-2-(7-(pyridin-4-yl)-2,7-diazaspiro[4.4]nonan-2-yl)ethyl)-1H-indol-7-yl)benzenesulfonic acid amide]",95%
9,"Cc1ccc2n1C(=O)N(c1ccc3ccn(CC(=O)N4CCC5(CC4)CCN(c4ccncc4)CC5)c3c1)C2 [Compound G-27, 5-Methyl-2-[1-[2-oxo-2-(9-pyridin-4-yl-3,9-diazaspiro[5.5]undecan-3-yl)-ethyl]-1H-indol-6-yl]-1,2-dihydro-pyrrolo[2,1-e]imidazol-3-one]",99%
10,"COc1cc(C)c(S(=O)(=O)Nc2cccc3ccn(CC(=O)N4CCC5(CC4)CC(c4ccncc4)=NO5)c23)c(C)c1 [Compound G-13, 4-Methoxy-2,6-dimethyl-N-(1-(2-oxo-2-(3-(pyridin-4-yl)-1-oxa-2,8-diazaspiro[4.5]dec-2-en-8-yl)ethyl)-1H-indol-7-yl)benzenesulfonic acid amide]",96%
11,"O=C(Cn1ccc2ccc(N3Cc4cccc(Cl)c4C3=O)cc21)N1CCC2(CCC(Oc3ccncc3)CC2)CC1 [Compound G-19, 7-Chloro-2-(1-(2-oxo-2-(9-(pyridin-4-yloxy)-3-azaspiro[5.5]undecan-3-yl)ethyl)-1H-indol-6-yl)isoindolin-1-one]",94%
12,"COc1cc(C)c(S(=O)(=O)Nc2cccc3ccn(CC(=O)N4CCC5(CC4)C(=O)NCN5c4ccccc4)c23)c(C)c1 [Compound G-04, 4-Methoxy-2,6-dimethyl-N-[1-[2-oxo-2-(1-oxo-4-phenyl-2,4,8-triazaspiro[4.5]decan-8-yl)-ethyl]-1H-indol-7-yl]-benzenesulfonic acid amide]",62%

# Further lines, results first:
row,inhibition at 10 µM,SMILES
1,101%,"COc1cc(C)c(S(=O)(=O)Nc2cccc3ccn(CC(=O)N4CCC5(CC4)CCN(Cc4ccccc4)C5=O)c23)c(C)c1 [G_CC-32, N-[1-[2-(3-Benzyl-4-oxo-3,8-diazaspiro[4.5]decan-8-yl)-2-oxo-ethyl]-1H-indol-7-yl]-4-methoxy-2,6-dimethyl-benzenesulfonic acid amide]"
2,99%,"Cc1cc(S(=O)(=O)Nc2cccc3ccn(CCC(=O)N4CCN(CC5CCN(C)CC5)CC4)c23)c(C)cc1Cl [G_CC-62, 4-Chloro-2,5-dimethyl-N-[1-[3-[4-[(1-methyl-piperidin-4-yl)-methyl]-piperazin-1-yl]-3-oxo-propyl]-1H-indol-7-yl]-benzenesulfonic acid amide]"
3,54%,"O=C(Cn1ccc2ccc(N3CCn4c(c(Cl)c5ccccc54)C3=O)cc21)N1CCC2(CC1)CCN(c1ccncc1)CC2 [Compound G-31, 10-Chloro-2-[1-[2-oxo-2-(9-pyridin-4-yl-3,9-diazaspiro[5.5]undecan-3-yl)-ethyl]-1H-indol-6-yl]-3,4-dihydro-2H-pyrazino[1,2-a]indol-1-one]"
4,103%,"COc1cc(C)c(S(=O)(=O)Nc2cccc3ccn(CCC(=O)N4CCN(CC5CCN(C)CC5)CC4)c23)c(C)c1 [G_CC-43, 4-Methoxy-2,6-dimethyl-N-[1-[3-[4-[(1-methyl-piperidin-4-yl)-methyl]-piperazin-1-yl]-3-oxo-propyl]-1H-indol-7-yl]-benzenesulfonic acid amide]"
5,106%,"Cn1c2c(c3c(Cl)cccc31)C(=O)N(c1ccc3ccn(CC(=O)N4CCC5(CC4)CCN(c4ccncc4)CC5)c3c1)C2 [Compound G-23, 8-Chloro-4-methyl-2-[1-[2-oxo-2-(9-pyridin-4-yl-3,9-diazaspiro[5.5]undecan-3-yl)-ethyl]-1H-indol-6-yl]-3,4-dihydro-2H-pyrrolo[3,4-b]indol-1-one]"
6,96%,"COc1cc(C)c(S(=O)(=O)Nc2cccc3ccn(CC(=O)N4CCC(N5CCc6cc(CN7CCCCC7)ccc6C5)C4)c23)c(C)c1 (stereo not shown) [Compound G-16, 4-Methoxy-2,6-dimethyl-N-(1-(2-oxo-2-(3-(6-(piperidin-1-ylmethyl)-3,4-dihydroisoquinolin-2(1H)-yl)pyrrolidin-1-yl)ethyl)-1H-indol-7-yl)benzenesulfonic acid amide]"
7,103%,"COc1cc(C)c(S(=O)(=O)NCc2cccc3ccn(CC(=O)N4CCC5(CC4)CCN(c4ccncc4)CC5)c23)c(C)c1 [Compound G-24, 4-Methoxy-2,6-dimethyl-N-[[1-[2-oxo-2-(9-pyridin-4-yl-3,9-diazaspiro[5.5]undecan-3-yl)-ethyl]-1H-indol-7-yl]-methyl]-benzenesulfonic acid amide]"
8,99%,"COc1cc(C)c(S(=O)(=O)Nc2cccc3ccn(CC(=O)N4CCC5(CCC(Oc6ccncc6)CC5)CC4)c23)c(C)c1 [Compound G-22, 4-Methoxy-2,6-dimethyl-N-(1-(2-oxo-2-(9-(pyridin-4-yloxy)-3-azaspiro[5.5]undecan-3-yl)ethyl)-1H-indol-7-yl)benzenesulfonic acid amide]"
9,102%,"COc1cc(C)c(S(=O)(=O)Nc2cccc3ccn(CCC(=O)NCCC4CCN(c5ccncc5)CC4)c23)c(C)c1 [G_CC-47, 3-[7-[[(4-Methoxy-2,6-dimethyl-phenyl)sulfonyl]amino]-1H-indol-1-yl]-N-[2-(1-pyridin-4-yl-piperidin-4-yl)-ethyl]-propionamide]"
10,100%,"O=C(CCn1ccc2ccc(N3Cc4cccc(Cl)c4C3=O)cc21)N1CCC2(CC1)CCN(c1ccncc1)CC2 [Compound G-07, 7-Chloro-2-[1-[3-oxo-3-(9-pyridin-4-yl-3,9-diazaspiro[5.5]undecan-3-yl)-propyl]-1H-indol-6-yl]-2,3-dihydro-isoindol-1-one]"
